Laboratory results taken from US5578622A, “Isothiazole derivatives and their uses” (Asamura Patent Office, priority 1994, dated 1996).

Columns and labels:
[1] = tested on: Trichophyton mentagrophytes IFO 5810; test: In vitro antimicrobial activity on Trichophyton mentagrophytes; format: cell-based; design: key: A: Fungus is not observed at all with the naked eye.; B: Presence of fungus is slightly observed on shaking the test tube.; C: Fungus of about less than one-fourth that of the DMSO control group is observed with the naked eye.; Fungus of about less than half that of the DMSO control group is observed with the naked eye; details: 10 (ppm); SGB, 27° C., 7 days
Description: 3-3 In vitro antimicrobial activity on Trichophyton mentagrophytes To Trichophyton mentagrophytes IFO 5810 precultured at 27° C. for 2 to 3 weeks on a Sabouraud's glucose agar (SGA) slant medium was added a sterilized physiological salt solution containing 0.1% (W/V) Tween 80. After conidia were made free from the solution, the solution was filtered through a sterilized two-sheet gauze to remove the mycelium mass. The number of the conidia in the resulting suspension was counted with a globulimeter and adjusted so as to be 1×10^6 conidia/ml with a sterilized physiological salt solution containing 0.1%(W/V) Tween 80. This solution was used as an inoculum solution. Thereafter, 0.1 ml of this solution and 0.1 ml of the dimethyl sulfoxide (DMSO) solution of the test compound were added to 9.8 ml of Sabouraud's glucose broth (SGB), and shake-cultured at 27° C. for 7 days.

[2] = tested on: Aspergillus fumigatus TIMM 0063; test: In vitro antimycotic activity on Aspergillus fumigatus; format: cell-based; details: TIMM0063, 10 (ppm), Casitone agar, 37° C., 48 hours, read-out: Antimycotic activity (growth inhibitory rate), A.fumigatus
Description: 3-2 In vitro antimycotic activity on Aspergillus fumigatus.
To Aspergillus fumigatus TIMM 0063 precultured at 37° C. for 48 hours on a potato dextrose agar (PDA) slant medium was added a sterilized physiological salt solution containing 0.1%(W/V) Tween 80. After conidia were made free from the solution, the solution was filtered through a sterilized two-sheet gauze to remove the mycelium mass. The number of the conidia in the resulting suspension was counted with a globulimeter and adjusted so as to be 1×10^5 conidia/ml with a sterilized physiological salt solution containing 0.1%(W/V) Tween 80. This solution was used as an inoculum solution. Casitone agar plate medium containing the DMSO solution of the test compound in a rate of 1% (V/V) was inoculated with the inoculum solution at four places thereof with a microplanter, and cultured with the medium allowed to stand at 37° C. for 48 hours. After culture, the diameter of the mycelium disks cultivated at the four inoculated parts was measured, and its mean value was obtained. The growth inhibitory rate was calculated according to the following equation, and the antimycotic activity was shown in the same manner as in Test Example 3-1.
Growth inhibitory rate (%)=(1-W'/Y')×100
Y': Diameter of mycelium disk of DMSO control group
W': Diameter of mycelium disk of test compound group

[3] = tested on: Rhizoctonia solani; test: Test for controlling effect on sheath blight of rice; format: in vivo; details: 120 h, 200 ppm spray, 24 hours after inoculation, rice 4-leaf stage, five days after inoculation, read-out: Controlling effect (control of disease), Sheath blight of rice
Outline: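 Rice seedlings at the 4-leaf stage were inoculated with mycelium, then sprayed 24 h later with compound at 200 ppm. After air-drying, plants were held 24 h at 28 °C and 98% humidity, then moved to a greenhouse. Infected area was scored 5 days post-inoculation; control was calculated relative to untreated plants.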

[4] = tested on: Gibberella fujikuroi ("Bakanae" disease of rice); test: Test for rice seed-disinfecting effect; format: in vivo; details: Fusarium fujikuroi, 504 h, seed immersion 25° C. 24 hours, three weeks after treatment, read-out: Controlling effect (control of disease), "Bakanae" disease of rice
Outline: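 Bakanae-infected unhulled rice seed soaked 24 hours at 25° C in 1000 ppm compound, then sown and germinated two days. Infected-seedling rate scored three weeks after treatment; control calculated against untreated plot and graded on a standard scale.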

[5] = tested on: Candida albicans IFO 1270; test: In vitro antimycotic activity on Candida albicans; format: cell-based; details: IFO1270, 10 (ppm), SGB, 37° C., 48 hours, turbidity at 650 nm, read-out: Antimycotic activity (growth inhibitory rate), C.albicans
Description: 3-1 In vitro antimycotic activity on Candida albicans
Candida albicans IFO 1270 pre-cultured on a Sabouraud's glucose agar (SGA) plate medium at 37° C. […] was suspended in a sterilized physiological salt solution. The number of fungi in the resulting suspension was counted with a globulimeter, and adjusted so as to be 1×10^7 cell/ml with a sterilized physiological salt solution. This solution was used as an inoculum solution. Thereafter, 0.1 ml of this solution and 0.1 ml of a dimethyl sulfoxide (DMSO) solution of the test compound were added to 9.8 ml of Sabouraud's glucose broth (SGB), and shake-cultured at 37° C. for 48 hours. After culture, the medium turbidity was measured at 650 nm, and the growth-inhibitory rate of the fungus was calculated according to the following equation.
Growth inhibitory rate (%)=(1-W/Y)×100
Y: Medium turbidity of DMSO control group
W: Medium turbidity of test compound group
From this inhibitory rate, the antimycotic activity was shown by the symbols A to D. The test results of the test compounds are shown in Table 4.

[6] = tested on: Pseudoperonospora cubensis; test: Test for controlling effect on downy mildew of cucumber; format: in vivo; details: 168 h, 200 ppm spray, one day before inoculation, cucumber 2-leaf stage, read-out: Controlling effect (control of disease), Downy mildew of cucumber
Outline: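 200 ppm compound sprayed on potted 2-leaf cucumber; P. cubensis zoospores spray-inoculated one day later. Plants kept 1 day in humid room at 25° C, then 6 days in greenhouse. Control computed from per-leaf infection relative to untreated plot.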

SMILES | Antimycotic activity (degree of growth, naked eye), T.mentagrophytes [1] | inhibition of growth at 10 µg/mL [2] | pest or weed control at 200 ppm [3] | pest or weed control at 1000 ppm [4] | inhibition of growth at 10 µg/mL [5] | pest or weed control at 200 ppm [6]
COc1nsc(SC(C)OCC#CI)c1C#N (stereo not drawn) [Compound 125] | A | 100% | 95 to 100% | 95 to 100% | 100% | 95 to 100%
CSc1snc(SCOCC#CI)c1C#N [Compound 128, 3-(3-iodo-2-propynyloxymethylthio)-4-cyano-5-methylthioisothiazole] | A | 100% | 60 to 79% | 80 to 94% | 100% | 95 to 100%
CC(C)Sc1snc(OCC#CI)c1C#N [Compound 4] | A | 100% | 80 to 94% | 95 to 100% | 100% | 95 to 100%
N#CCOc1nsc(SCOCC#CI)c1C#N [Compound 63] | A | 100% | 80 to 94% | 95 to 100% | 100% | 95 to 100%
